Test results as given in PubChem BioAssay AID463229 (Broad Institute, 2010).
Values joined by “and” are separate entries in the source; they are usually repeats but may differ in a detail not shown here. Identical values can stand only once. Active and inactive are the calls of the source.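 How the source made its calls: active means compounds raising the signal whose fitted half-maximal concentration is at or below their top tested dose (cut at about 25 µM in these data); inconclusive means flat fit at 30 to 70% activity, or a poor fit; inactive means the rest.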

What follows are compounds tested on INS-1E rat beta cells, no cytokines, CellTiter-Glo ATP, 48 h (assay: ATP level change in INS-1E without cytokines, dose response, counter-screen for beta-cell apoptosis protection project, INS-1E rat cells, ATP luminescence, cherry pick (AID 463229)).

Compared with `CC1=CC2/C=C(\C)CCC(O)C(O)/C=C/C(=O)C23C(=O)NC(CC(C)C)C3C1C` (configuration not stated), `CNc1ccc2oc(C[C@H]3O[C@@]4(CC[C@H]3C)O[C@H]([C@H](C)C(=O)c3ccc[nH]3)[C@H](C)C[C@H]4C)nc2c1C(=O)O` is 5.7-fold lower in AC50: 7.48 µM for the first, 1.32 µM for the second.

`CCCC(=O)NC(NC(=S)Nc1ccc(N=Nc2ccccc2)cc1)C(Cl)(Cl)Cl` (configuration not stated) and `CC(C)Nc1ccc(Nc2ccccc2)cc1` are within 1.5-fold of each other in AC50: 7.51 µM for the first, 7.5 µM for the second.

Going from `Cc1ccc(NC2=C/C(=N\S(=O)(=O)c3cccs3)c3ccccc3C2=O)c(C)c1` to `Cc1ccc(S(=O)(=O)/N=C2\C=C(Nc3cccc(C(=O)O)c3)C(=O)c3ccccc32)c(C)c1`, the AC50 rises from 1.88 µM to 7.81 µM (4.2-fold).

Going from `C/C(=N\NC(=O)c1ccc(F)cc1)c1ccccn1` to `Cn1nccc1C(=O)N/N=C/c1c(O)ccc2ccccc12`, the AC50 rises from 2.35 µM to 3.54 µM (1.5-fold).

Going from `O=C(CSc1nc2ccccc2c(=O)n1-c1ccccc1)N1CCc2ccccc2C1` to `c1ccc(CNc2c3ccccc3nc3ccccc23)cc1`, the AC50 rises from 3.16 µM to 11.5 µM (3.6-fold).

Going from `CCCCCCCCCCOC(=O)Cn1c(COc2ccc(C)cc2)[n+](C)c2ccccc21` to `CCCCOc1ccc(-c2cc(C(=O)NNC(=S)NCC)c3ccccc3n2)cc1`, the AC50 rises from 4 µM to 6.66 µM (1.7-fold).

`CC1=NN(c2ccc(C)c(C)c2)C(=O)/C1=C\C=C\c1ccc([N+](=O)[O-])o1` and `Cc1ccc(/C=C/C(=O)c2ccc([N+](=O)[O-])o2)cc1` are within 1.5-fold of each other in AC50: 7.6 µM for the first, 7.11 µM for the second.

`COc1cccc(/C=N/Nc2nc3ccccc3n3cnnc23)c1O` and `Cc1cc(N/N=C/c2ccc(O)cc2O)nc(-c2ccccc2O)n1` are within 1.5-fold of each other in AC50: 7.23 µM for the first, 7.47 µM for the second.

First: O=C(OCn1ncc(Cl)c(Cl)c1=O)c1ccccc1Cl
Second: O=C(Nc1ccc(C(=O)Nc2ccccc2Cl)cc1)c1cccnc1
The AC50 of the first is 4.2-fold higher: 7.84 µM for the first, 1.85 µM for the second.

Compared with `COc1ccc(N/N=C(/N=Nc2nc(C)cc(=O)[nH]2)c2ccccc2)cc1`, `COc1ccc(-c2cn(Cc3ccc(C(=O)c4ccccc4)cc3)nn2)cc1` is 6.5-fold higher in AC50: 1.78 µM for the first, 11.6 µM for the second.

`O=C(NCc1cccnc1)/C(=C\c1ccc(-c2cccc(Cl)c2)o1)S(=O)(=O)c1ccccc1` and `CN(C)CCNC(=O)/C(=C/c1ccc(-c2ccc(Cl)cc2Cl)o1)NC(=O)c1ccccc1` are within 1.5-fold of each other in AC50: 6.78 µM for the first, 9.44 µM for the second.

`CCc1cc(SC#N)cc(C)c1NC(=O)CCl` and `CCOC(=O)c1ccc(NC(=O)Cn2cnc3cc(C)c(C)cc32)cc1` are within 1.5-fold of each other in AC50: 4.52 µM for the first, 5.23 µM for the second.

First: Cc1ccc(C2CC(c3ccc(C)cc3)n3nc(N)nc3N2)cc1 (configuration not stated)
Second: CC1=NN(c2nc(-c3ccc(C)cc3)cs2)C(=O)C1N=Nc1ccc(C(N)=O)cc1 (configuration not stated)
The AC50 of the first is 5.1-fold higher: 17.9 µM for the first, 3.53 µM for the second.

First: CCn1nc(C)c(CNC(=O)c2ccc(OC3CCN(Cc4ccccn4)CC3)cc2)c1C
Second: O=C(COc1ccc([N+](=O)[O-])cc1)Nc1ccc(C(=O)NCc2cccnc2)cc1
The AC50 of the first is 19-fold higher: 6.9 µM for the first, 0.369 µM for the second.

`CCC(=O)NC(c1ccc(OC)cc1)c1cc(Cl)c2cccnc2c1O` (configuration not stated) and `CC(=O)NC(c1cccs1)c1cc(F)c2cccnc2c1O` (configuration not stated) are within 1.5-fold of each other in AC50: 6.63 µM for the first, 6.05 µM for the second.

First: CCOC(=O)c1[nH]cnc1N=Nc1c(O)ccc2ccccc12
Second: CCOC(=O)c1ccc(NC(=O)c2nc(S(=O)(=O)Cc3ccccc3)ncc2Cl)cc1
The AC50 of the first is 4-fold lower: 2.28 µM for the first, 9.2 µM for the second.

Going from `c1ccc(CCNc2ncnc3ccccc23)cc1` to `CCCCOc1cc(NCc2ccccc2)c2ncn(C(C)C)c2c1`, the AC50 rises from 1.71 µM to 7.26 µM (4.2-fold).

First: CCN1/C(=C\C=C\C2=[N+](CC)c3ccccc3C2(C)C)C(C)(C)c2ccccc21
Second: CC(C)(C)c1cc[n+](C2=C([O-])c3ccccc3C(=O)/C2=N\S(=O)(=O)c2cccs2)cc1
The AC50 of the first is lower: < 0.195 µM for the first, 7.44 µM for the second.

Going from `CCOc1ccc2nc(NC(=O)c3cccc(-c4cc5ccccc5oc4=O)c3)sc2c1` to `O=c1c2ccccc2nc(COc2ccccc2)n1/N=C/c1cc([N+](=O)[O-])ccc1O`, the AC50 rises from 3.31 µM to 14.7 µM (4.4-fold).

Compared with `CC(C)(C)c1ccc(-n2ncc3c2CCCC3NC(=O)C2(C(N)=O)CC2)cc1` (configuration not stated), `CCc1cc(C(=O)NC2CCCc3c2cnn3-c2cccc(C)c2C)n(C)n1` (configuration not stated) is lower in AC50: 6.85 µM for the first, < 0.195 µM for the second.

Compared with `O=C1c2ccc3c4c(ccc(c24)C(=O)N1c1cccc(O)c1)C(=O)N(c1cccc(O)c1)C3=O`, `C=CCn1c(SCN2C(=O)c3ccccc3C2=O)nc2ccc(Cl)cc2c1=O` is 2.1-fold higher in AC50: 3.36 µM for the first, 7.16 µM for the second.

First: Cc1nc(C(=O)NNC(=O)c2c(-c3c(Cl)cccc3Cl)noc2C)cs1
Second: CCOC(=O)c1nc(NNC(=O)c2ccc([N+](=O)[O-])cc2)sc1C
The AC50 of the first is 2.8-fold higher: 19.9 µM for the first, 7.04 µM for the second.

First: CSc1nc(-c2ccccc2)nc(C(Cl)Cl)n1
Second: Cn1c(=O)[nH]c(=O)c2c1nc([N+](=O)[O-])n2Cc1ccccc1
The AC50 of the first is 1.7-fold lower: 3.88 µM for the first, 6.67 µM for the second.

`CCOc1cccc(/C=N/NC(=O)c2cc(C3CC3)[nH]n2)c1O` and `Cc1cccc(/C=N/NC(=O)c2ccc3c(c2)OCCO3)c1O` are within 1.5-fold of each other in AC50: 7.83 µM for the first, 7.38 µM for the second.

First: Cn1ncnc2c(=O)n(C)c(=O)nc1-2
Second: Cc1nn(C)c(C)c1CN(C)S(=O)(=O)c1ccc2ccccc2c1
The AC50 of the first is 2-fold lower: 1.48 µM for the first, 3.02 µM for the second.

Compared with `O=C(Nc1cccnc1)c1ccc([N+](=O)[O-])s1`, `NC(=O)c1ccc(N2CCN(S(=O)(=O)c3cccs3)CC2)c([N+](=O)[O-])c1` is 2.4-fold lower in AC50: 15.3 µM for the first, 6.36 µM for the second.

`Cc1cc(C(C)(C)CC(C)(C)C)ccc1OCCOCC[N+](C)(C)Cc1ccccc1` and `CCCCCc1ccc(OCCCC[n+]2ccccc2)c(CCCCC)c1` are within 1.5-fold of each other in AC50: 4.07 µM for the first, 3.3 µM for the second.

Going from `Cc1ccccc1Oc1cc(NC(=O)CCCn2nc(C)c([N+](=O)[O-])c2C)cc([N+](=O)[O-])c1` to `CCN(CC)S(=O)(=O)c1ccc(N/N=C/c2cc(OC)ccc2O)nc1`, the AC50 falls from 6.44 µM to 4.24 µM (1.5-fold).

`O=C(c1cc(COc2cccc3cnccc23)on1)N1CCCC(CCCO)C1` (configuration not stated) and `CCN(CC)c1ccc(/C=N/NC(=O)c2cnccn2)c(O)c1` are within 1.5-fold of each other in AC50: 2.04 µM for the first, 2.01 µM for the second.

First: Oc1c(Br)cc(Br)cc1/C=N/Nc1ccc(Cl)nn1
Second: CCCCc1ccc(N/C(N)=N/c2nc(C)cc(C)n2)cc1
The AC50 of the first is 4.2-fold lower: 1.21 µM for the first, 5.12 µM for the second.

First: CCCC(C)C(=O)Nc1nc(C)c(-c2csc(Nc3ccc(Cl)cc3)n2)s1 (configuration not stated)
Second: COc1ccc(NCc2nnc(SCC(=O)Nc3nc(-c4ccccc4)cs3)n2-c2ccccc2)cc1
The AC50 of the first is 1.9-fold lower: 3.71 µM for the first, 7 µM for the second.

Compared with `Cc1cc(C)c2c(ccc3cccc[n+]32)c1`, `Cc1cc(-c2n[nH]c(=S)n2/N=C/C(Br)=C/c2ccccc2)n[nH]1` is 2.4-fold higher in AC50: 6.45 µM for the first, 15.6 µM for the second.

Going from `c1ccc2c(CN3CCCCCC3)c[nH]c2c1` to `CCN(CC)c1ccc(CNc2nc3ccccc3n2CCN2CCCCC2)cc1`, the AC50 rises from 3.61 µM to 7.26 µM (2-fold).

First: CCCC[n+]1ccn(C2=C([O-])c3ccccc3C(=O)/C2=N\S(=O)(=O)c2ccc(Cl)cc2)c1
Second: CN(c1ccccc1)S(=O)(=O)c1ccc(NC(=O)c2nc(S(C)(=O)=O)ncc2Cl)cc1
The AC50 of the first is 2.2-fold higher: 15.8 µM for the first, 7.32 µM for the second.

Compared with `CCCCCCCCSc1nnc(CSc2nc3nc(C)cc(C)n3n2)o1`, `CCCCCCCCCn1c2c(c(=N)c3c1CCC3)CCC2` is lower in AC50: 26.1 µM for the first, < 0.195 µM for the second.

First: COC(=O)C1=C(C)N(Cc2ccccc2)C(=NCc2cccc(C(F)(F)F)c2)N[C@H]1c1cccc(F)c1
Second: COC(=O)c1ccc2[nH]c3cccc(/C(=C/c4ccccc4)c4ccccc4)c3c2c1
The AC50 of the first is 1.9-fold lower: 8.07 µM for the first, 15.7 µM for the second.

Compared with `O=C1/C(=C\c2cccnc2)CN(Cc2ccccc2)C/C1=C\c1cccnc1`, `CC(C)c1ccc2c(c1)C(N1CCNCC1)Cc1ccc(F)cc1S2` (configuration not stated) is 1.9-fold higher in AC50: 7.58 µM for the first, 14.6 µM for the second.

`CNc1nc2cc([N+](=O)[O-])c([N+](=O)[O-])cc2nc1NC` showed an AC50 of 0.278 µM.

In the case of `O=C1/C(=C/c2ccc(N3CCOCC3)o2)SC(=Nc2ccccc2)N1CCc1c[nH]c2ccccc12`, the AC50 is reported as > 26 µM (inactive).
`C[C@H]1CCC/C=C/[C@@H]2C[C@H](O)C[C@H]2[C@H](O)/C=C/C(=O)O1` was tested, and the AC50 was 0.948 µM and 1 µM.
